Some test systems named below: DU-145 prostate; HCC-2998 colon; MALME-3M melanoma; MDA-MB-231 breast; NCI-H522 lung; OVCAR-3 ovarian; OVCAR-4 ovarian; SN12C renal; TK-10 renal; UACC-62 melanoma.
Holding throughout (experiment): growth of human tumour cells (NCI), 48 h

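Grown in 96-well plates, cells were treated for 48 hours with each compound at five concentrations. Insufficient inhibition: endpoint recorded as highest concentration tested. TGI: concentration producing complete growth inhibition.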

As for `COc1cc([C@@H]2c3cc4c(cc3[C@@H](c3c(O)cc(O)c5c3O[C@H](c3ccc(O)c(O)c3)[C@@H](O)C5)[C@H]3COC(=O)[C@H]23)OCO4)cc(OC)c1O`, the TGI in the test on DU-145 prostate, in the test with HCC-2998 colon, in the test on MALME-3M melanoma, with MDA-MB-231 breast, with NCI-H522 lung and with OVCAR-3 ovarian was above 100 µM throughout. The TGI in the test on OVCAR-4 ovarian, in the test with SN12C renal, in the test with TK-10 renal and in the test on UACC-62 melanoma was above 100 µM throughout.
Regarding `NS(=O)(=O)c1ccc(NC(NC(=O)C(C(F)(F)F)C(F)(F)F)(C(F)(F)F)C(F)(F)F)cc1`, the TGI in the test on DU-145 prostate, in the test on HCC-2998 colon, in the test with MALME-3M melanoma, with MDA-MB-231 breast, with NCI-H522 lung and with OVCAR-3 ovarian was above 100 µM each time. For the same compound, the TGI with OVCAR-4 ovarian, in the test on SN12C renal, in the test with TK-10 renal and in the test on UACC-62 melanoma was above 100 µM throughout.
Regarding `CC(C)(C)C(=O)C(Cc1ccccc1)C(=O)C(C)(C)C`, the TGI with DU-145 prostate, with HCC-2998 colon, in the test with MALME-3M melanoma, in the test on MDA-MB-231 breast, with NCI-H522 lung and in the test on OVCAR-3 ovarian was above 100 µM in each case. Further, the TGI with OVCAR-4 ovarian, in the test with SN12C renal and in the test with TK-10 renal was above 100 µM each time.
With `C=C(C)[C@@]1(O[Si](C)(C)C)CCCC[C@@H]1CC(Sc1ccccc1)Sc1ccccc1`, the TGI in the test with DU-145 prostate is 29.7 µM; with HCC-2998 colon it was 29.8 µM; in the test with MALME-3M melanoma, 24.4 µM; with MDA-MB-231 breast it was 32.1 µM; with NCI-H522 lung it was 20.4 µM; with OVCAR-3 ovarian, 27.7 µM. Also, the TGI amounted to 26.2 µM in the test with OVCAR-4 ovarian, 29 µM in the test on TK-10 renal and 26.9 µM with UACC-62 melanoma.
Consider `COP(=O)(OC)C12CCOCCN1c1ccccc1C2=O` (stereo not drawn), for which the TGI in the test on DU-145 prostate, in the test with HCC-2998 colon, in the test with MALME-3M melanoma, in the test with MDA-MB-231 breast, with NCI-H522 lung and in the test on OVCAR-3 ovarian was above 100 µM throughout. For the same compound, the TGI in the test with OVCAR-4 ovarian, with SN12C renal, with TK-10 renal and in the test with UACC-62 melanoma was above 100 µM throughout.
Regarding `COC(=O)C1(Cc2ccc3c(c2)CCC3)Cc2ccccc2C1=O` (stereo not drawn), the TGI was 67.8 µM with DU-145 prostate; above 100 µM in the test on HCC-2998 colon; above 100 µM in the test on MALME-3M melanoma; above 100 µM with MDA-MB-231 breast; 31.5 µM in the test on NCI-H522 lung; above 100 µM in the test on OVCAR-3 ovarian. Besides, the TGI with OVCAR-4 ovarian is above 100 µM; in the test with SN12C renal, above 100 µM; in the test with TK-10 renal, 55.9 µM; in the test on UACC-62 melanoma, above 100 µM.
Consider `N#CCCN(CCC#N)c1ccc(/C=C2\SC(=S)NC2=O)cc1Br`, for which the TGI with DU-145 prostate is above 100 µM; in the test with HCC-2998 colon, above 100 µM; in the test on MALME-3M melanoma, above 100 µM; with MDA-MB-231 breast, 79.6 µM; in the test with NCI-H522 lung it was above 100 µM; with OVCAR-3 ovarian, above 100 µM. For the same compound, the TGI in the test on OVCAR-4 ovarian, with SN12C renal, in the test on TK-10 renal and in the test on UACC-62 melanoma was above 100 µM throughout.
Turning to `Cc1cc(/N=C/c2ccc(C#N)cc2)n(-c2ccccc2)n1`, the TGI in the test on DU-145 prostate, in the test with HCC-2998 colon, in the test on MALME-3M melanoma, in the test with MDA-MB-231 breast, with NCI-H522 lung and in the test on OVCAR-3 ovarian was above 100 µM throughout. Further, the TGI in the test with OVCAR-4 ovarian, with SN12C renal, with TK-10 renal and in the test with UACC-62 melanoma was above 100 µM throughout.
Regarding `N#CC(=N)c1ncn(-c2ccccc2N)c1N`, the TGI with DU-145 prostate, with HCC-2998 colon, with MALME-3M melanoma, with MDA-MB-231 breast, in the test on NCI-H522 lung and in the test with OVCAR-3 ovarian was above 100 µM in each case. Further, the TGI with OVCAR-4 ovarian, in the test with SN12C renal, with TK-10 renal and in the test on UACC-62 melanoma was above 100 µM in each case.
On to `COC(=O)C1=C(C)NC(C)=C([N+](=O)[O-])C1c1cccc(N=O)c1` (stereo not drawn), for which the TGI in the test on DU-145 prostate is 28.7 µM; in the test with HCC-2998 colon it was 34.8 µM; in the test with MALME-3M melanoma, 25.2 µM; in the test with MDA-MB-231 breast, 32.6 µM; in the test with NCI-H522 lung, 5.34 µM; in the test on OVCAR-3 ovarian it was 28.6 µM. The TGI is 24.7 µM in the test on OVCAR-4 ovarian, 34.5 µM in the test with SN12C renal, 25.4 µM in the test on TK-10 renal and 29 µM in the test on UACC-62 melanoma.
Take `COc1ccc(N=C2C(=S)N(c3ccc(OC)cc3)/C(=N/S(=O)(=O)c3ccccc3)N2c2ccccc2)cc1`: the TGI is above 48.8 µM in the test with DU-145 prostate; above 57.9 µM with HCC-2998 colon; 36.2 µM in the test with MALME-3M melanoma; 10.6 µM in the test with MDA-MB-231 breast; 4.24 µM with NCI-H522 lung; 18.1 µM in the test with OVCAR-3 ovarian. The TGI in the test on OVCAR-4 ovarian worked out at 22.4 µM; with SN12C renal, 32.4 µM; in the test with TK-10 renal it was 28.3 µM; in the test on UACC-62 melanoma, 16.2 µM.
In the case of `CC1=C[C@@H](C)C[C@]2(C)CC[C@H](O2)[C@]23CC[C@](C(=O)O)(C[C@H](O2)[C@@H]2O[C@@](C)(CC2=O)[C@@H](O)[C@H]2CC[C@@]4(CCC[C@@H](O4)[C@H](C)C(=O)O[C@H]4C[C@H]([C@]5(O)OCC[C@H](C)[C@@H]5O)O[C@H]4C=C1)O2)O3`, the TGI in the test on DU-145 prostate, with HCC-2998 colon, in the test with MALME-3M melanoma, with MDA-MB-231 breast, in the test with NCI-H522 lung and in the test on OVCAR-3 ovarian was above 10 µM in each case. For the same compound, the TGI with OVCAR-4 ovarian, in the test on SN12C renal, in the test with TK-10 renal and in the test on UACC-62 melanoma was above 10 µM each time.
On to `O=C(CNCc1ccccc1)Oc1c(Cl)c(Cl)c(Cl)c(Cl)c1Cl`, for which the TGI turned out to be 44.3 µM with DU-145 prostate; 53.9 µM with HCC-2998 colon; 65.3 µM in the test with MALME-3M melanoma; 69.1 µM in the test with MDA-MB-231 breast; 75.9 µM with NCI-H522 lung; 62.9 µM in the test on OVCAR-3 ovarian. For the same compound, the TGI is above 100 µM with OVCAR-4 ovarian, above 100 µM in the test with SN12C renal, above 100 µM in the test with TK-10 renal and 51.5 µM with UACC-62 melanoma.

Source of the values: PubChem BioAssay (NCI).
